Here are results for one sequence from patent publication US11369665B2, “Anti-inflammatory peptides and composition comprising the same” (GemVax & KAEL Co., Ltd., priority 2012, dated 2022).

One assay has as its system ILlRa. Briefly: qPCR array in THP-1 cells. The note with it: LPS 10 ng/mL, 4 μM PEP-1, 4 h. The class given is cell-based, human. As for the experimental part: (§1) THP-1 cells (human monocytic leukemia derived cell line) were purchased from ATCC ([…] TYPE CULTURE COLLECTION®, Manassas, Va., USA) and cultured in RPMI-1640 (LIFE TECHNOLOGIES®, Carlsbad, Calif., USA) medium supplemented with 10% FBS (LIFE TECHNOLOGIES®), 1% penicillin/streptomycin (LIFE TECHNOLOGIES®), and 0.05 mM 2-mercaptoethanol (SIGMA-ALDRICH®, St. Louis, Mo., USA) at 37° C. in 5% CO2. THP-1 cells that normally grow in suspension were differentiated into an adherent macrophage-like phenotype in differentiation medium (complete growth medium containing 100 ng/mL phorbol 12-myristate 13-acetate (PMA, SIGMA-ALDRICH®)) for 24 hr. For differentiation, THP-1 cells (3×10^6 cells/plate, ˜95% confluency) were seeded into 10-cm tissue culture plates and incubated in differentiation medium.
(§2) Following differentiation, the macrophage-like THP-1 cells were washed twice using complete growth medium. Then, cells were treated with 10 ng/mL lipopolysaccharide (SIGMA-ALDRICH®) and/or 4 μM PEP-1 for 4 h at 37° C.
(§3) Total RNA was extracted and purified using RNeasy mini kit from QIAGEN® (Valencia, Calif., USA) following manufacturer's protocol. cDNAs were synthesized by reverse transcription using Reverse Transcription System from PROMEGA CORPORATION® (Madison, Wis., USA) according to the manufacturer's protocol.
(§4) Then, cDNA samples from THP-1 cells were used as template for real-time quantitative PCR (qPCR) analysis. For qPCR analysis, RT2 Profiler PCR Array kits were purchased from SABIOSCIENCES®/QIAGEN® (Valencia, Calif. USA). Four different PCR array kits analyzing separate signaling pathways used in the experiment are as follows: human signal transduction pathway finder, human inflammatory cytokines & receptors, human transcription factors, human NF-κB signaling pathway. PCR was performed with SYBR® Green qPCR detection system (QIAGEN®) using a BIO-RAD® (Hercules, Calif., USA) CFX 96 real-time PCR instrument. Thermocycling conditions were: 95° C. for 10 sec; 55° C. for 30 sec; 95° C. for 10 min; 95° C. for 10 sec, 55° C. for 30 sec, and 72° C. for 30 sec for 50 amplification cycles. Data represents the average value from three independent experiments, and % decrease was determined by the target gene expression in LPS treated samples vs. LPS+PEP-1 treated samples. Among 336 genes analyzed, only those showing statistically significant (p<0.05, student's t-test) % decrease were shown in table 7.

A further assay relates to TNFR11B. The experiment in a line: qPCR array in THP-1 cells. The settings on record: LPS 10 ng/mL, 4 μM PEP-1, 4 h. The class given is cell-based, human. As to the method: as §1, §2, §3, §4
The next assay relates to IkBα. Briefly: qPCR array in THP-1 cells. The class given is cell-based, human. The note with it: LPS 10 ng/mL, 4 μM PEP-1, 4 h. As for the experimental part: as §1, §2, §3, §4
The test system of the next assay is BCL10. The experiment in a line: qPCR array in THP-1 cells. The class given is cell-based, human. The note with it: LPS 10 ng/mL, 4 μM PEP-1, 4 h. As for the experimental part: as §1, §2, §3, §4
A further assay concerns CCL26/MIP4α. Briefly: qPCR array in THP-1 cells. The class given is cell-based, human. The note with it: LPS 10 ng/mL, 4 μM PEP-1, 4 h. As for the experimental part: as §1, §2, §3, §4
The subject of assay [1] is ACSL5 (acyl-coA synthase). The experiment in a line: qPCR array in THP-1 cells. The class given is cell-based, human. The settings on record: LPS 10 ng/mL, 4 μM PEP-1, 4 h. As for the experimental part:
as §1, §2, §3, §4

The next assay relates to CCL4/MIP1β. Briefly: qPCR array in THP-1 cells. The class given is cell-based, human. The settings on record: LPS 10 ng/mL, 4 μM PEP-1, 4 h. As for the experimental part: as §1, §2, §3, §4
In the next assay the test system is CD40Ligand. Briefly: qPCR array in THP-1 cells. The class given is cell-based, human. The note with it: LPS 10 ng/mL, 4 μM PEP-1, 4 h. As to the method: as §1, §2, §3, §4
The test system of a further assay is GM-CSF. The experiment in a line: qPCR array in THP-1 cells. The class given is cell-based, human. The settings on record: LPS 10 ng/mL, 4 μM PEP-1, 4 h. As to the method: as §1, §2, §3, §4
The test system of a further assay is IL17C. Briefly: qPCR array in THP-1 cells. The class given is cell-based, human. The note with it: LPS 10 ng/mL, 4 μM PEP-1, 4 h. As to the method:
as §1, §2, §3, §4

Another assay relates to G-CSF. The experiment in a line: qPCR array in THP-1 cells. The class given is cell-based, human. The settings on record: LPS 10 ng/mL, 4 μM PEP-1, 4 h. As to the method:
as §1, §2, §3, §4

A further assay has as its system TNFα. Briefly: qPCR array in THP-1 cells. The class given is cell-based, human. The settings on record: LPS 10 ng/mL, 4 μM PEP-1, 4 h. As to the method: as §1, §2, §3, §4
In a further assay the test system is IL10. The experiment in a line: qPCR array in THP-1 cells. The settings on record: LPS 10 ng/mL, 4 μM PEP-1, 4 h. The class given is cell-based, human. As to the method:
as §1, §2, §3, §4

Another assay deals with T1, amyloid-β protein (Homo sapiens, UniProt P05067).
T1 construct: co-treated with 1 μM amyloid beta protein and PEP 1 (0.1, 1 and 10 μM)
T1 sequence (P05067 672-713 limits assumed): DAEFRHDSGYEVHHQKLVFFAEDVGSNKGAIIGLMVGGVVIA
Briefly: Amyloid-β aggregation. The class given is biochemical. From the text: In addition, we investigated the response of PEP-1 to the amyloid-β aggregation.

Assay [2] relates to Ki67, pAKT, PI3K, HSTF-1 and Bcl-2. Briefly: Western blot of anti-apoptotic proteins in amyloid-β damaged neural stem cells. The settings on record: 20 μM amyloid beta, PEP-1 1, 10 and 50 μM, FIGS. 15A-15F. The class given is cell-based, rat.
The next assay has as its system HMGB1. Briefly: Western blot of HMGB1 in amyloid-β damaged neural stem cells. The class given is cell-based, rat. The settings on record: after the decrease by amyloid-β treatment, FIG. 15J. From the text:
HMGB1, a non-histone structure protein that binds to DNA, serves diverse roles within a cell; such as stabilizing nucleosome structure and regulating gene expression.

The subject of assay [3] is neural stem cells. Briefly: Co-treatment amyloid-β and PEP-1: viability (MMT and CCK-8 assay). The class given is cell-based, rat. The note with it: 20 μM amyloid-β protein, co-treated 48 hours. As for the experimental part: (§5) To determine whether PEP 1 has the effect of suppressing the neurotoxicity caused by amyloid-β protein, 20 μM amyloid-β protein and various concentrations of PEP-1 were co-treated for 48 hours. The cell viability and apoptosis were measured using MMT assay, CCK-8 assay, LDH assay and TUNEL assay, and neural stem cell proliferation by BrdU assay.
(Refer to FIG. 8). LDH assay was carried out for assessment of the degree of cell death as another method, and we confirmed that the increase in cell death by amyloid-β decreased by PEP-1, and efficacy was seen starting at 1 μM concentration (Refer to FIG. 9).

Assay [4] concerns neural stem cells. Briefly: Co-treatment amyloid-β and PEP-1: apoptosis (TUNEL assay). The class given is cell-based, rat. The note with it: 20 μM amyloid-β protein, 1 to 100 μM of PEP 1. As to the method:
as §5
To confirm the degree of neuronal stem cells damage, TUNEL assay was performed. […] (Refer to FIG. 12)

For EARPALLTSRLRFIPK [PEP-1], in the assay with ILlRa, the “ILlRa % Decrease by PEP 1 (LPS + PEP-1/LPS), p < 0.05” value was “↓20%”. In the assay with TNFR11B, the “TNFR11B % Decrease by PEP 1 (LPS + PEP-1/LPS), p < 0.05” value is listed as “↓↓↓38%”. In addition, in the assay with IkBα, the “IkBα % Decrease by PEP 1 (LPS + PEP-1/LPS), p < 0.05” value is “↓↓27%”. Moreover, in the assay with BCL10, the “BCL10 % Decrease by PEP 1 (LPS + PEP-1/LPS), p < 0.05” value is on record as “↓↓32%”. Besides, the “CCL26/MIP4α % Decrease by PEP 1 (LPS + PEP-1/LPS), p < 0.05” value in the assay on CCL26/MIP4α was “↓↓↓42%”. For the same sequence, in assay [1], the “ACSL5 (acyl-coA synthase) % Decrease by PEP 1 (LPS + PEP-1/LPS), p < 0.05” value is on record as “↓17%”. Moreover, the “CCL4/MIP1β % Decrease by PEP 1 (LPS + PEP-1/LPS), p < 0.05” value in the assay on CCL4/MIP1β was “↓22%”. The “CD40Ligand % Decrease by PEP 1 (LPS + PEP-1/LPS), p < 0.05” value in the assay on CD40Ligand was “↓18%”. Besides, in the assay on GM-CSF, the “GM-CSF % Decrease by PEP 1 (LPS + PEP-1/LPS), p < 0.05” value is reported as “↓↓29%”. The “IL17C % Decrease by PEP 1 (LPS + PEP-1/LPS), p < 0.05” value in the assay with IL17C is “↓↓35%”. The “G-CSF % Decrease by PEP 1 (LPS + PEP-1/LPS), p < 0.05” value with G-CSF is on record as “↓↓↓48%”. Further, the “TNFα % Decrease by PEP 1 (LPS + PEP-1/LPS), p < 0.05” value with TNFα is reported as “↓↓34%”. Further, the “IL10 % Decrease by PEP 1 (LPS + PEP-1/LPS), p < 0.05” value in the assay with IL10 is “↓↓32%”. Further, in the assay with amyloid-β protein (1 μM amyloid beta protein co-treated with PEP 1 0.1, 1 and 10 μM, FIG. 16A), the “aggregation of amyloid-β protein during induction” value is given as “inhibited”. In addition, the “amyloid-β protein already induced for aggregation” value in the assay with amyloid-β protein (FIG. 16B) is “underwent degradation”. Also, in [2], the “protein expression levels of anti-apoptotic proteins Ki67, pAKT, PI3K, HSTF-1, Bcl-2” value is on record as “increased the protein expression levels”. Also, the “HMGB1 in the cytoplasm of the nerve cells” value in the assay on HMGB1 is “increase of HMGB1”. For the same sequence, in the assay on neural stem cells [3], the “concentration at which protection from amyloid-β neurotoxicity began” value was 10 µM and the “concentration of most effective protection from amyloid-β neurotoxicity” value worked out at 100 µM. The “neuronal stem cell death (TUNEL)” value with neural stem cells [4] is “decreased”.
